According to PubChem BioAssay (NCI):
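GI50 = concentration required for 50% inhibition of growth. TGI is the concentration that stops growth completely.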

Legend:
Test in all cases: NCI anticancer screen, dose series, 384-well format
[1] = test system: MALME-3M melanoma
[2] = test system: HOP-92 NSCLC
[3] = test system: IGROV1 ovarian
[4] = test system: NCI/ADR-RES ovarian
[5] = test system: UACC-62 melanoma
[6] = test system: SW-620 colon
[7] = test system: U251 glioblastoma
[8] = test system: OVCAR-4 ovarian
[9] = test system: SK-OV-3 ovarian
[10] = test system: SNB-19 CNS
[11] = test system: RXF 393 renal
[12] = test system: NCI-H460 NSCLC
[13] = test system: SK-MEL-5 melanoma
[14] = test system: M14 melanoma
[15] = test system: HCT-116 colon
[16] = test system: NCI-H226 lung
[17] = test system: COLO 205 colon
[18] = test system: BT-549 breast
[19] = test system: ACHN renal
[20] = test system: TK-10 renal
[21] = test system: OVCAR-3 ovarian
[22] = test system: MDA-MB-468 breast
[23] = test system: SNB-75 CNS
[24] = test system: KM12 colon
[25] = test system: A549 NSCLC
[26] = test system: HT29 colon
[27] = test system: LOX IMVI melanoma
[28] = test system: HL-60(TB) leukemia
[29] = test system: CAKI-1 renal

COc1cc(C(=O)N[C@@H]2CCCN(C)C2)ccc1Nc1ncc2c(n1)N(C1CCCC1)CC(C)(C)C(=O)N2C
GI50 [1]: 45.9 nM | TGI [1]: 251 nM | GI50 [2]: 88.1 nM | TGI [2]: 989 nM | GI50 [3]: 45.7 nM | TGI [3]: 1670 nM | GI50 [4]: 695 nM | TGI [4]: 2340 nM | GI50 [5]: 33.7 nM | TGI [5]: 252 nM | GI50 [6]: 20.5 nM | TGI [6]: 114 nM | GI50 [7]: 46.7 nM | TGI [7]: 1440 nM | GI50 [8]: 1110 nM | TGI [8]: 2780 nM | GI50 [9]: 45.6 nM | TGI [9]: 1200 nM | GI50 [10]: 50.1 nM | TGI [10]: 1850 nM | GI50 [11]: 20 nM | TGI [11]: 61.4 nM | GI50 [12]: 21.7 nM | TGI [12]: 47.9 nM | GI50 [13]: 25.3 nM | TGI [13]: 133 nM | GI50 [14]: 27.3 nM | TGI [14]: 136 nM | GI50 [15]: 39.4 nM | TGI [15]: 705 nM | GI50 [16]: 1620 nM | TGI [16]: 12000 nM | GI50 [17]: 19.5 nM | TGI [17]: 71.4 nM | GI50 [18]: 43.2 nM | TGI [18]: 309 nM | GI50 [19]: 541 nM | TGI [19]: 2230 nM | GI50 [20]: 1170 nM | TGI [20]: 4970 nM | GI50 [21]: 18.1 nM | TGI [21]: 47.9 nM | TGI [22]: 16.3 nM | GI50 [23]: 285 nM | TGI [23]: 2610 nM | GI50 [24]: 17 nM | TGI [24]: 1050 nM | GI50 [25]: 38.7 nM | TGI [25]: 1090 nM | GI50 [26]: 21.2 nM | TGI [26]: 68.1 nM | GI50 [27]: 34.1 nM | TGI [27]: 201 nM | GI50 [28]: 14.3 nM | TGI [28]: 28.3 nM | GI50 [29]: 395 nM | TGI [29]: 2640 nM
